Reference: patent publication US20260262643A1, “HERBICIDAL BENZOXAZINES” (FMC CORPORATION, priority 2022, published 2026)

What was measured:
blackgrass [1] = experiment: Test A preemergence; type: in vivo, Alopecurus myosuroides; details: 1000 g ai/ha, 0 to 100 scale (0 no effect, 100 complete control), 10 days; for pest or weed control at 1000 g/ha: Alopecurus myosuroides, pre-emergence, 240 h, read-out: Plant response rating, Blackgrass
From the text: (§1) Seeds of plant species selected from barnyardgrass (Echinochloa crusgalli), blackgrass (Alopecurus myosuroides), corn (Zea mays), foxtail, giant (giant foxtail, Setaria faberi), goosegrass (Eleusine indica), kochia (Bassia scoparia), oat, wild (wild oat, Avena fatua), pigweed, palmer (palmer amaranth, palmer pigweed, Amaranthus palmeri), Pigweed, Redroot (redroot pigweed, Amaranthus retroflexus), ragweed (common ragweed, Ambrosia artemisiifolia), ryegrass, Italian (italian ryegrass, Lolium multiflorum), soybean (Glycine max), and wheat (Triticum aestivum) were planted into a blend of loam soil and sand and treated preemergence with a directed soil spray using test chemicals formulated in a non-phytotoxic solvent mixture which included a surfactant. At the same time, plants selected from these crops and weed species and also galium (catchweed bedstraw, Galium aparine) and horseweed (Erigeron canadensis) were planted in pots containing the same blend of loam soil and sand and treated with postemergence applications of test chemicals formulated in the same manner. Plants ranged in height from 2 to 10 cm and were in the one- to two-leaf stage for the postemergence treatment. Treated plants and untreated controls were maintained in a greenhouse for 10 days, after which time all treated plants were compared to untreated controls and visually evaluated for injury. Plant response ratings, summarized in Table A, are based on a 0 to 100 scale where 0 is no effect and 100 is complete control. A dash (-) response means no test result.

foxtail, giant [2] = experiment: Test A preemergence; type: in vivo, Setaria faberi; details: 1000 g ai/ha, 0 to 100 scale (0 no effect, 100 complete control), 10 days; for pest or weed control at 1000 g/ha: Setaria faberi, pre-emergence, 240 h, read-out: Plant response rating, Foxtail, Giant
From the text: as §1

goosegrass [3] = experiment: Test A preemergence; type: in vivo, Eleusine indica; details: 1000 g ai/ha, 0 to 100 scale (0 no effect, 100 complete control), 10 days; for pest or weed control at 1000 g/ha: Eleusine indica, pre-emergence, 240 h, read-out: Plant response rating, Goosegrass
From the text: as §1

kochia [4] = experiment: Test A preemergence; type: in vivo, Bassia scoparia; details: 1000 g ai/ha, 0 to 100 scale (0 no effect, 100 complete control), 10 days; for pest or weed control at 1000 g/ha: Bassia scoparia, pre-emergence, 240 h, read-out: Plant response rating, Kochia
From the text: as §1

pigweed, palmer [5] = experiment: Test A preemergence; type: in vivo, Amaranthus palmeri; details: 1000 g ai/ha, 0 to 100 scale (0 no effect, 100 complete control), 10 days; for pest or weed control at 1000 g/ha: Amaranthus palmeri, pre-emergence, 240 h, read-out: Plant response rating, Pigweed, Palmer
From the text: as §1

ragweed [6] = experiment: Test A preemergence; type: in vivo, Ambrosia artemisiifolia; details: 1000 g ai/ha, 0 to 100 scale (0 no effect, 100 complete control), 10 days; for pest or weed control at 1000 g/ha: Ambrosia artemisiifolia, pre-emergence, 240 h, read-out: Plant response rating, Ragweed
From the text: as §1

ryegrass, Italian [7] = experiment: Test A preemergence; type: in vivo, Lolium multiflorum; details: 1000 g ai/ha, 0 to 100 scale (0 no effect, 100 complete control), 10 days; for pest or weed control at 1000 g/ha: Lolium multiflorum, pre-emergence, 240 h, read-out: Plant response rating, Ryegrass, Italian
From the text: as §1

blackgrass [8] = experiment: Test A postemergence; type: in vivo, Alopecurus myosuroides; details: 1000 g ai/ha, Postemergence, 0 to 100 scale; for pest or weed control at 1000 g/ha: Alopecurus myosuroides, post-emergence, 240 h, read-out: Plant response rating, Blackgrass
From the text: as §1

foxtail, giant [9] = experiment: Test A postemergence; type: in vivo, Setaria faberi; details: 1000 g ai/ha, Postemergence, 0 to 100 scale; for pest or weed control at 1000 g/ha: Setaria faberi, post-emergence, 240 h, read-out: Plant response rating, Foxtail, Giant
From the text: as §1

goosegrass [10] = experiment: Test A postemergence; type: in vivo, Eleusine indica; details: 1000 g ai/ha, Postemergence, 0 to 100 scale; for pest or weed control at 1000 g/ha: Eleusine indica, post-emergence, 240 h, read-out: Plant response rating, Goosegrass
From the text: as §1

kochia [11] = experiment: Test A postemergence; type: in vivo, Bassia scoparia; details: 1000 g ai/ha, Postemergence, 0 to 100 scale; for pest or weed control at 1000 g/ha: Bassia scoparia, post-emergence, 240 h, read-out: Plant response rating, Kochia
From the text: as §1

pigweed, palmer [12] = experiment: Test A postemergence; type: in vivo, Amaranthus palmeri; details: 1000 g ai/ha, Postemergence, 0 to 100 scale; for pest or weed control at 1000 g/ha: Amaranthus palmeri, post-emergence, 240 h, read-out: Plant response rating, Pigweed, Palmer
From the text: as §1

ragweed [13] = experiment: Test A postemergence; type: in vivo, Ambrosia artemisiifolia; details: 1000 g ai/ha, Postemergence, 0 to 100 scale; for pest or weed control at 1000 g/ha: Ambrosia artemisiifolia, post-emergence, 240 h, read-out: Plant response rating, Ragweed
From the text: as §1

ryegrass, Italian [14] = experiment: Test A postemergence; type: in vivo, Lolium multiflorum; details: 1000 g ai/ha, Postemergence, 0 to 100 scale; for pest or weed control at 1000 g/ha: Lolium multiflorum, post-emergence, 240 h, read-out: Plant response rating, Ryegrass, Italian
From the text: as §1

galium = experiment: Test A postemergence; type: in vivo, Galium aparine; details: 1000 g ai/ha, Postemergence, 0 to 100 scale; for pest or weed control at 1000 g/ha: Galium, post-emergence, 240 h, read-out: Plant response rating, Galium
From the text: as §1

horseweed = experiment: Test A postemergence; type: in vivo, Erigeron canadensis; details: 1000 g ai/ha, Postemergence, 0 to 100 scale; for pest or weed control at 1000 g/ha: Erigeron canadensis, post-emergence, 240 h, read-out: Plant response rating, Horseweed
From the text: as §1

barnyardgrass = experiment: Test B flooded paddy test; type: in vivo, Echinochloa crus-galli; details: 250 g ai/ha, Flood, 13 days, 0 to 100 scale (0 no effect, 100 complete control); for pest or weed control at 250 g/ha: Echinochloa crus-galli, 312 h, read-out: Plant response rating, Barnyardgrass
Protocol: (§2) Plant species in the flooded paddy test selected from barnyardgrass (Echinochloa crus-galli), ducksalad (Heteranthera limosa), rice (Oryza sativa), and sedge, umbrella (small-flower umbrella sedge, Cyperus difformis) were grown to the 2-leaf stage for testing. At time of treatment, test pots were flooded to 3 cm above the soil surface, treated by application of test compounds directly to the paddy water, and then maintained at that water depth for the duration of the test. Treated plants and controls were maintained in a greenhouse for 13 days, after which time all species were compared to controls and visually evaluated. Plant response ratings, summarized in Table B, are based on a scale of 0 to 100 where 0 is no effect and 100 is complete control. A dash (-) response means no test result.

ducksalad = experiment: Test B flooded paddy test; type: in vivo, Heteranthera limosa; details: 250 g ai/ha, Flood, 13 days, 0 to 100 scale (0 no effect, 100 complete control); for pest or weed control at 250 g/ha: Heteranthera limosa, 312 h, read-out: Plant response rating, Ducksalad
Protocol: as §2

rice = experiment: Test B flooded paddy test; type: in vivo, Oryza sativa; details: 250 g ai/ha, Flood, 13 days, 0 to 100 scale (0 no effect, 100 complete control); for plant injury at 250 g/ha: Oryza sativa, 312 h, read-out: Plant response rating, Rice
Protocol: as §2

sedge, umbrella = experiment: Test B flooded paddy test; type: in vivo, Cyperus difformis; details: 250 g ai/ha, Flood, 13 days, 0 to 100 scale (0 no effect, 100 complete control); for pest or weed control at 250 g/ha: Cyperus difformis, 312 h, read-out: Plant response rating, Sedge, Umbrella
Protocol: as §2

SMILES | Plant response rating, Blackgrass (blackgrass [1]) | Plant response rating, Foxtail, Giant (foxtail, giant [2]) | Plant response rating, Goosegrass (goosegrass [3]) | Plant response rating, Kochia (kochia [4]) | Plant response rating, Pigweed, Palmer (pigweed, palmer [5]) | Plant response rating, Ragweed (ragweed [6]) | Plant response rating, Ryegrass, Italian (ryegrass, Italian [7]) | Plant response rating, Blackgrass (blackgrass [8]) | Plant response rating, Foxtail, Giant (foxtail, giant [9]) | Plant response rating, Goosegrass (goosegrass [10]) | Plant response rating, Kochia (kochia [11]) | Plant response rating, Pigweed, Palmer (pigweed, palmer [12]) | Plant response rating, Ragweed (ragweed [13]) | Plant response rating, Ryegrass, Italian (ryegrass, Italian [14]) | Plant response rating, Galium (galium) | Plant response rating, Horseweed (horseweed) | Plant response rating, Barnyardgrass (barnyardgrass) | Plant response rating, Ducksalad (ducksalad) | Plant response rating, Rice (rice) | Plant response rating, Sedge, Umbrella (sedge, umbrella) | other results
Cc1cccc2c1O[C@H](C(F)(F)F)CN2C(=O)c1cccc(-n2cncn2)c1 (single isomer, unassigned) [Compound 58] |  |  |  |  |  |  |  |  |  |  |  |  |  |  |  |  |  |  |  |  | pest or weed control at 1000 g/ha (blackgrass [1]): 40%; pest or weed control at 1000 g/ha (foxtail, giant [2]): 80%; pest or weed control at 1000 g/ha (goosegrass [3]): 90%; pest or weed control at 1000 g/ha (kochia [4]): 20%; pest or weed control at 1000 g/ha (pigweed, palmer [5]): 80%; pest or weed control at 1000 g/ha (ragweed [6]): 0%; pest or weed control at 1000 g/ha (ryegrass, Italian [7]): 90%; pest or weed control at 1000 g/ha (blackgrass [8]): 20%; pest or weed control at 1000 g/ha (foxtail, giant [9]): 30%; pest or weed control at 1000 g/ha (goosegrass [10]): 20%; pest or weed control at 1000 g/ha (kochia [11]): 60%; pest or weed control at 1000 g/ha (pigweed, palmer [12]): 20%; pest or weed control at 1000 g/ha (ragweed [13]): 10%; pest or weed control at 1000 g/ha (ryegrass, Italian [14]): 30%; pest or weed control at 1000 g/ha (galium): 60%; pest or weed control at 1000 g/ha (horseweed): 0%; pest or weed control at 250 g/ha (barnyardgrass): 0%; pest or weed control at 250 g/ha (ducksalad): 0%; plant injury at 250 g/ha (rice): 0%; pest or weed control at 250 g/ha (sedge, umbrella): 0%
Cc1cccc2c1O[C@@H](C(F)(F)F)CN2C(=O)c1cccc(-n2cncn2)c1 (single isomer, unassigned) [Compound 68] |  |  |  |  |  |  |  |  |  |  |  |  |  |  |  |  |  |  |  |  | pest or weed control at 1000 g/ha (blackgrass [1]): 80%; pest or weed control at 1000 g/ha (foxtail, giant [2]): 100%; pest or weed control at 1000 g/ha (goosegrass [3]): 100%; pest or weed control at 1000 g/ha (kochia [4]): 90%; pest or weed control at 1000 g/ha (pigweed, palmer [5]): 100%; pest or weed control at 1000 g/ha (ragweed [6]): 70%; pest or weed control at 1000 g/ha (ryegrass, Italian [7]): 100%; pest or weed control at 1000 g/ha (blackgrass [8]): 80%; pest or weed control at 1000 g/ha (foxtail, giant [9]): 90%; pest or weed control at 1000 g/ha (goosegrass [10]): 90%; pest or weed control at 1000 g/ha (kochia [11]): 80%; pest or weed control at 1000 g/ha (pigweed, palmer [12]): 50%; pest or weed control at 1000 g/ha (ragweed [13]): 60%; pest or weed control at 1000 g/ha (ryegrass, Italian [14]): 90%; pest or weed control at 1000 g/ha (galium): 100%; pest or weed control at 1000 g/ha (horseweed): 0%; pest or weed control at 250 g/ha (barnyardgrass): 0%; pest or weed control at 250 g/ha (ducksalad): 55%; plant injury at 250 g/ha (rice): 0%; pest or weed control at 250 g/ha (sedge, umbrella): 65%
Cc1cc(C(=O)N2CC(C)Oc3c(Cl)cccc32)cc(-n2cncn2)c1 (stereo not shown) [Compound 32] | 80 | 100 | 100 | 30 | 90 | 0 | 100 | 80 | 100 | 80 | 60 | 70 | 20 | 90 | 100 | 0 | 0 | 0 | 0 | 0 | 
Cc1ccc(-n2cncn2)cc1C(=O)N1CC(C)Oc2c(Cl)cccc21 (stereo not shown) [Compound 33] | 100 | 100 | 100 | 70 | 100 | 100 | 100 | 90 | 100 | 90 | 70 | 100 | 80 | 100 | 100 | 30 | 30 | 30 | 0 | 65 | 
O=C(c1ccnc(-n2cncn2)c1)N1CC(C(F)(F)F)Oc2c(Cl)cccc21 (stereo not shown) [Compound 34] | 80 | 100 | 100 | 90 | 100 | 20 | 90 | 70 | 100 | 50 | 100 | 80 | 50 | 90 | 100 | 0 | 0 | 0 | 0 | 0 | 
